Source: article PMC12351382, “Fibrinography and thrombography (thrombodynamics-4D) in atrial fibrillation assessment of direct oral anticoagulants in geriatrics patients aged 80 years and older receiving direct oral anticoagulant therapy” (Research and Practice in Thrombosis and Haemostasis, 2025)

Key:
[1] = Plasma DOAC concentration in ADAGE patients (chromogenic anti-FXa assay for rivaroxaban and apixaban; anti-FIIa Hemoclot assay for dabigatran); assay type: in vivo, human; conditions: for DOAC concentration, range: ADAGE patients, reduced dose (regimens as E1)
Text: (§1) ADAGE is an academic, prospective, observational multicenter study (NCT 02464488; for details, see Foulon-Pinto et al.). We recruited hospitalized patients from the university hospital’s geriatric department (Assistance Publique-Hôpitaux de Paris, Paris, France). […] The DOAC dose regimen was at the discretion of the physician. Exclusion criteria included any acute, unstable comorbid condition or an estimated life expectancy of a few weeks. Sampling (see below) and last DOAC intake times were recorded on a standardized request form. Sampling time points were at the discretion of the physicians over a period of 20 days following inclusion. Time points were classified according to the time elapsed from the last oral intake (T, hours) for patients receiving rivaroxaban. T1 to T4 corresponded to peak time (Tmax), and T20 to T24 corresponded to trough (Tmin). […] Physicians prospectively collected demographic, clinical, and laboratory data (including creatinine clearance [CrCl] calculated with the Cockcroft–Gault formula). The study was approved by the institutionnel Ethics Committee (Comité consultatif de protection des personnes pour la recherche biomédicale–Île-de-France-6–number 15.074bis). All participants gave written informed consent to participate in the study. Only patients for whom remaining plasma aliquots were available were included in the present study.
(§2) Tubes were sent to each centre’s laboratory within 2 hours after sampling and immediately double-centrifuged for 15 minutes at 2000 × g at 15 to 22 °C to obtain platelet-poor plasma. Plasma samples (500 μL aliquots) were stored at −80 °C prior to shipment on dry ice for central analysis (Haematology Laboratory, Hôpital Lariboisière). Plasma samples were thawed for 3 to 5 minutes in a 37 °C water bath just before testing.
Dedicated calibrations and controls were used. The lower limit of quantification was 20 ng/mL for the 3 assays.

[2] = system: fibrin clot formation; experiment: Thrombodynamics-4D fibrinography in plasma samples from ADAGE patients on DOACs; assay type: in vivo, human; conditions: for CS (clot size at 30 minutes), median (IQR) / CS (clot size at 30 minutes), range / D (clot density), median (IQR) / D (clot density), range / Fibrinography Tlag (lag time), median (IQR) / Fibrinography Tlag (lag time), range / Initial rate of clot growth (Vi), median (IQR) / Initial rate of clot growth (Vi), range / Time to Tsp (spontaneous clotting), median (IQR) / Time to Tsp (spontaneous clotting), range: ADAGE patients, reduced dose (regimens as E1)
Text: as §1, §2
(§3) The TD-4D assay was performed centrally using the Thrombodynamics analyzer system (Hemacore, Diapharma) with the TD-4D PLS dedicated kit (Hemacore, Diapharma). The system simultaneously measures spatiotemporal parameters of fibrin clot formation (fibrinography) and TG process (thrombography) in a thin layer of unstirred plasma. Briefly, 120 μL of platelet-poor plasma is added to a microcuvette containing corn trypsin inhibitor to prevent contribution of contact phase activation, then 5 μL of phospholipid solution (manufacturer’s reagent) is added. After incubation for 15 minutes at 37 °C in the Thrombodynamics device, the mixture is transferred to a second microcuvette containing calcium ions, and then immediately transferred to the measurement cuvette. Finally, the activator insert, whose surface is coated with immobilized tissue factor (100 pmol/m^2), is then transferred to the cuvette. The process of fibrin clot formation is recorded in a time-lapse video-microscopy mode using a dark-field light scattering method. Simultaneously, the system monitors TG by fluorimetry, based on the ability of thrombin to cleave a fluorogenic substrate, 7-amino-4-methylcoumarin (AMC) bound to a short amino acid sequence (Arg-Gly-Gly). The rate of AMC formation is proportional to local thrombin concentration. The microcuvette is maintained at 37 °C and is illuminated with red (625 nm) or ultra-violet (365 nm) light emitting diodes. Clot growth is detected with red light scattering, while AMC fluorescence is detected with UV. Scattered red light and fluorescence passing through the macro lens are recorded by a charge-coupled device system. Images under red and blue light are acquired once per minute. The whole analysis lasts 1 hour. The Thrombodynamics software (Hemacore, Diapharma) calculates parameters of spatiotemporal dynamics of fibrin clot formation and TG [40, 46]. […]

[3] = system: thrombin generation; experiment: Thrombodynamics-4D thrombography in plasma samples from ADAGE patients on DOACs; assay type: in vivo, human; conditions: for ETP (endogenous thrombin potential, ETP_ATG), median (IQR) / ETP (endogenous thrombin potential, ETP_ATG), range / Thrombin peak height (Cmax_ATG), median (IQR) / Thrombin peak height (Cmax_ATG), range / Thrombography Tlag (Lag_ATG), median (IQR) / Thrombography Tlag (Lag_ATG), range / Time to peak (Tmax_ATG), median (IQR) / Time to peak (Tmax_ATG), range: ADAGE patients, reduced dose (regimens as E1)
Text: as §1, §2, §3

[4] = system: fibrin clot formation; experiment: Thrombodynamics-4D fibrinography in pooled normal plasma (Cryocheck) spiked with DOACs; assay type: biochemical, human; conditions: 0 to 1000 nM, mainly at low DOAC concentrations
Experimental: (§4) Frozen pooled normal plasma samples (Cryocheck-Cryopep) were spiked with increasing concentrations of DOACs (0-450 ng/mL), as previously described. […] were kindly provided by Bristol Myers Squibb/Pfizer, Bayer Healthcare, and Boehringer Ingelheim, respectively.
The TD-4D assay was performed centrally using the Thrombodynamics analyzer system (Hemacore, Diapharma) with the TD-4D PLS dedicated kit (Hemacore, Diapharma). The system simultaneously measures spatiotemporal parameters of fibrin clot formation (fibrinography) and TG process (thrombography) in a thin layer of unstirred plasma. Briefly, 120 μL of platelet-poor plasma is added to a microcuvette containing corn trypsin inhibitor to prevent contribution of contact phase activation, then 5 μL of phospholipid solution (manufacturer’s reagent) is added. […] The process of fibrin clot formation is recorded in a time-lapse video-microscopy mode using a dark-field light scattering method. […] Clot growth is detected with red light scattering, while AMC fluorescence is detected with UV. Scattered red light and fluorescence passing through the macro lens are recorded by a charge-coupled device system. […]
(§5) The following fibrinography parameters were recorded (see Supplementary Table 1): (i) lag time (Tlag, minutes); (ii) initial rate of clot growth (Vi, μm/min); (iii) rate of clot growth (V, μm/min); (iv) clot size (CS, μm) measured at 30 minutes; (v) clot density (D, arbitrary units); (vi) time to spontaneous clotting (Tsp, minutes). The following thrombography parameters (at the near-activator area) were recorded (see Supplementary Table 1): (i) Tlag (minutes); (ii) time to thrombin peak (minutes); (iii) maximal thrombin concentration (ie, thrombin peak height, Cmax_ATG, AU/L); (iv) endogenous thrombin potential (ETP_ATG, AU⋅min/L); (v) stationary amplitude of moving peak of thrombin (Ast, AU/L); (vi) rate of thrombin peak propagation (μm/min; see Supplementary Videos 1–3).

[5] = system: thrombin generation; experiment: Thrombodynamics-4D thrombography in pooled normal plasma (Cryocheck) spiked with DOACs; assay type: biochemical, human
Experimental: as §4
as §3, with “minute.” for “minute. The whole analysis lasts 1 hour. The Thrombodynamics software (Hemacore, Diapharma) calculates parameters of spatiotemporal dynamics of fibrin clot formation and TG [40, 46].”
as §5

[6] = all ADAGE patient samples, any time point and dose
[7] = all ADAGE patient samples, Spearman
[8] = univariate analysis, Tmax, line marked Halving
[9] = univariate analysis, Tmin, line marked Halving

With COc1ccc(-n2nc(C(N)=O)c3c2C(=O)N(c2ccc(N4CCCCC4=O)cc2)CC3)cc1 [Apixaban] the “DOAC concentration, range” value ([1]; Tmax (peak)) was 69 to 442 ng/mL, the “DOAC concentration, range” value ([1]; Tmin (trough)) was 20 to 240 ng/mL and the “DOAC plasma concentration, lower end of range” value [1, 6] was under 20 ng/mL. For the same compound, the “DOAC plasma concentration, upper end of range” value [1, 6] was 547 ng/mL, the “CS (clot size at 30 minutes), median (IQR)” value ([2]; Tmax (peak)) was 1362 (1317-1698) μm and the “CS (clot size at 30 minutes), range” value ([2]; Tmax (peak)) was 1134-1857 μm. For the same compound, the “D (clot density), median (IQR)” value ([2]; Tmax (peak)) was 25,340 (22,600-27,790) a.u, the “D (clot density), range” value ([2]; Tmax (peak)) was 14,090-34,880 a.u and the “Fibrinography Tlag (lag time), median (IQR)” value ([2]; Tmax (peak)) was 1.3 (1.2-1.4) min. For the same compound, the “Fibrinography Tlag (lag time), range” value ([2]; Tmax (peak)) was 0.9 to 2.3 min, the “Initial rate of clot growth (Vi), median (IQR)” value ([2]; Tmax (peak)) was 64.9 (60.9-74.2) μm/min and the “Initial rate of clot growth (Vi), range” value ([2]; Tmax (peak)) was 56.1- 95.5 μm/min. For the same compound, the “Time to Tsp (spontaneous clotting), median (IQR)” value ([2]; Tmax (peak)) was 22.9 (12.1-31.1) min, the “Time to Tsp (spontaneous clotting), range” value ([2]; Tmax (peak)) was 6.8 to 48.2 min and the “CS (clot size at 30 minutes), median (IQR)” value ([2]; Tmin (trough)) was 1655 (1395-1780) μm. The “CS (clot size at 30 minutes), range” value ([2]; Tmin (trough)) was 1170-2147 μm, the “D (clot density), median (IQR)” value ([2]; Tmin (trough)) was 25,470 (21,190-29,910) a.u and the “D (clot density), range” value ([2]; Tmin (trough)) was 15,530-37,550 a.u. The “Fibrinography Tlag (lag time), median (IQR)” value ([2]; Tmin (trough)) was 1.1 (1.0-1.3) min, the “Fibrinography Tlag (lag time), range” value ([2]; Tmin (trough)) was 0.7 to 1.8 min and the “Initial rate of clot growth (Vi), median (IQR)” value ([2]; Tmin (trough)) was 68.3 (64.8-76.2) μm/min. For the same compound, the “Initial rate of clot growth (Vi), range” value ([2]; Tmin (trough)) was 54.6-88.8 μm/min, the “Time to Tsp (spontaneous clotting), median (IQR)” value ([2]; Tmin (trough)) was 23.0 (12.8-28.1) min and the “Time to Tsp (spontaneous clotting), range” value ([2]; Tmin (trough)) was 6.8 to 46.7 min. The “Change of CS (clot size) with increasing concentrations” value ([2]; all ADAGE patient samples) was “decreased”, the “Association of D (clot density) with DOAC concentration” value [2, 7] was “not” and the “Relationship between time to spontaneous clot formation (Tsp) and DOAC levels” value [2, 7] was “no relationship”. For the same compound, the “Effect of DOAC concentration at Tmax (βC.pic) on fibrinography initial velocity of clot formation” value [2, 8] was “≈ 0.02018%”, the “Effect of DOAC concentration at Tmin (βC.res) on fibrinography initial velocity of clot formation” value [2, 9] was “≈ 0.04558%” and the “ETP (endogenous thrombin potential, ETP_ATG), median (IQR)” value ([3]; Tmax (peak)) was 1698 (1280-1961) AU⋅min/L. For the same compound, the “ETP (endogenous thrombin potential, ETP_ATG), range” value ([3]; Tmax (peak)) was 971-3095 AU⋅min/L, the “Thrombin peak height (Cmax_ATG), median (IQR)” value ([3]; Tmax (peak)) was 309 (240-395) AU/L and the “Thrombin peak height (Cmax_ATG), range” value ([3]; Tmax (peak)) was 206-507 AU/L. For the same compound, the “Thrombography Tlag (Lag_ATG), median (IQR)” value ([3]; Tmax (peak)) was 0.3 (0.2-0.6) min, the “Thrombography Tlag (Lag_ATG), range” value ([3]; Tmax (peak)) was 0.1 to 1.3 min and the “Time to peak (Tmax_ATG), median (IQR)” value ([3]; Tmax (peak)) was 2.1 (2.1-2.6) min. The “Time to peak (Tmax_ATG), range” value ([3]; Tmax (peak)) was 1.2 to 4.6 min, the “ETP (endogenous thrombin potential, ETP_ATG), median (IQR)” value ([3]; Tmin (trough)) was 1711 (1436-1978) AU⋅min/L and the “ETP (endogenous thrombin potential, ETP_ATG), range” value ([3]; Tmin (trough)) was 924-2958 AU⋅min/L. The “Thrombin peak height (Cmax_ATG), median (IQR)” value ([3]; Tmin (trough)) was 325 (292-379) AU/L, the “Thrombin peak height (Cmax_ATG), range” value ([3]; Tmin (trough)) was 158-511 AU/L and the “Thrombography Tlag (Lag_ATG), median (IQR)” value ([3]; Tmin (trough)) was 0.2 (0.2-0.6) min. For the same compound, the “Thrombography Tlag (Lag_ATG), range” value ([3]; Tmin (trough)) was 0.1 to 1.0 min, the “Time to peak (Tmax_ATG), median (IQR)” value ([3]; Tmin (trough)) was 2.1 (2.1-2.1) min and the “Time to peak (Tmax_ATG), range” value ([3]; Tmin (trough)) was 1.6 to 3.6 min. For the same compound, the “Change of ETP_ATG with increasing DOAC plasma concentrations” value ([3]; all ADAGE patient samples) was “decreased”, the “Effect of DOAC concentration at Tmax (βC.pic) on thrombography peak height (PH)” value [3, 8] was “≈ 0.07471%” and the “Effect of DOAC concentration at Tmin (βC.res) on thrombography peak height (PH)” value [3, 9] was “≈ 0.1698%”. For the same compound, the “Samples in which spontaneous clotting occurred” value [4] was 14% and the “Change of Ast (stationary amplitude of thrombin moving peak) with increasing concentrations” value [5] was “decreased”.
